Reference: patent US20110178104A1, “Anti-Heparin Compounds” (POLYMEDIX INC., priority 2010, published 2011)

Columns and labels:
fondaparinux (FONDAPX) = assay: FXa chromogenic assay (absence of plasma), fondaparinux; settings: fondaparinux 0.02 μg/mL, absence of plasma
enoxaparin (ENOX) = assay: FXa chromogenic assay (absence of plasma), enoxaparin; settings: enoxaparin 0.1 μg/mL, absence of plasma
Experimental: Human antithrombin was mixed with an anticoagulant agent (a LMWH or fondaparinux); final concentrations were 0.22 μg/mL for the LMWHs and 0.07 μg/mL for fondaparinux. […] Absorbance was read every 30 seconds over a 4 minute period in a SpectraMax 250 instrument (Molecular Devices, Inc.). EC50 values are determined by a curve-fit program (SoftMax Pro) using the following formula:
FXa Chromogenic Assay (absence of plasma). Human antithrombin was mixed with an anticoagulant (a LMWH or fondaparinux); final concentrations were 0.1 μg/mL for the LMWHs and 0.02 μg/mL for fondaparinux. […] Absorbance was read every 30 seconds over a 4 minute period in a SpectraMax 250 instrument (Molecular Devices Inc.™) The slope of absorbance vs time was calculated for each compound concentration. EC50 values were determined using a curve fit program (GraphPad Prism 5).

[1] = system: unfractionated heparin (UFH); assay: aPTT clotting assay, UFH 0.2 U/mL in plasma (Example 7); assay type: biochemical; settings: UFH 0.2 U/mL in plasma
Experimental: aPTT clotting Assay. Unfractionated heparin was mixed with plasma at a final concentration of 0.2 U/mL. […] The ACL Elite Hemostasis analyzer (Beckman Coulter™) was used to add aPTT reagent (HemosIL SynthASil) to supplemented plasma. Clotting was initiated by addition of CaCl2 and time to clot was recorded.

Row | Compound | FONDAPX (FXa) EC50 (fondaparinux (FONDAPX)) | ENOX (FXa) EC50 (enoxaparin (ENOX)) | UFH (aPTT) EC50 [1]
1 | COc1ccc(NC(=O)[C@@H](CCCNC(=N)N)NC(=O)c2cc(NC(=O)[C@@H](CCCNC(=N)N)NC(=O)c3cc(NC(=O)[C@@H](C)NC(=O)c4cc(NC(=O)[C@H](N)CCCNC(=N)N)ccc4OC)ccc3OC)ccc2OC)cc1C(N)=O [Compound 15] | 7.84 µg/mL | 0.92 µg/mL | 
2 | N=C(N)NCCC[C@@H](N)C(=O)Nc1cccc(C(=O)N[C@H](CCCNC(=N)N)C(=O)Nc2cccc(C(=O)N[C@H](CCCNC(=N)N)C(=O)Nc3cccc(C(=O)N[C@H](CCCNC(=N)N)C(=O)Nc4cccc(C(N)=O)c4)c3)c2)c1 [Compound 20] | 11.10 µg/mL | 8.62 µg/mL | 
3 | COc1ccc(NC(=O)[C@@H](CCCNC(=N)N)NC(=O)c2cccc(NC(=O)[C@H](N)CCCNC(=N)N)c2)cc1C(=O)N[C@H](CCCNC(=N)N)C(=O)Nc1ccc(OC)c(C(=O)N[C@H](CCCNC(=N)N)C(=O)Nc2cccc(C(N)=O)c2)c1 [Compound 21] | 8.84 µg/mL | 0.65 µg/mL | 
4 | COc1ccc(NC(=O)[C@@H](CCCNC(=N)N)NC(=O)c2cc(NC(=O)[C@@H](CCCNC(=N)N)NC(=O)c3cccc(NC(=O)[C@@H](CCCNC(=N)N)NC(=O)c4cccc(NC(=O)[C@H](N)CCCNC(=N)N)c4)c3)ccc2OC)cc1C(N)=O [Compound 22] | 7.63 µg/mL | 0.56 µg/mL | 
5 | N=C(N)NCCC[C@@H](N)C(=O)Nc1ccc(F)c(C(=O)N[C@H](CCCNC(=N)N)C(=O)Nc2ccc(F)c(C(=O)N[C@H](CCCNC(=N)N)C(=O)Nc3ccc(F)c(C(=O)N[C@H](CCCNC(=N)N)C(=O)Nc4ccc(F)c(C(N)=O)c4)c3)c2)c1 [Compound 23] | 18.01 µg/mL | 3.68 µg/mL | 
6 | COc1ccc(NC(=O)[C@@H](CCCNC(=N)N)NC(=O)c2cc(NC(=O)[C@H](N)CCCNC(=N)N)ccc2F)cc1C(=O)N[C@H](CCCNC(=N)N)C(=O)Nc1ccc(OC)c(C(=O)N[C@H](CCCNC(=N)N)C(=O)Nc2ccc(F)c(C(N)=O)c2)c1 [Compound 24] | 9.23 µg/mL | 0.47 µg/mL | 
7 | COc1ccc(NC(=O)[C@@H](CCCNC(=N)N)NC(=O)c2cc(NC(=O)[C@@H](CCCNC(=N)N)NC(=O)c3cc(NC(=O)[C@@H](CCCNC(=N)N)NC(=O)c4cc(NC(=O)[C@H](N)CCCNC(=N)N)ccc4F)ccc3F)ccc2OC)cc1C(N)=O [Compound 25] | 10.36 µg/mL | 0.97 µg/mL | 
8 | COc1ccc(NC(=O)C(CCCCN)NC(=O)c2cc(NC(=O)C(CCCCN)NC(=O)c3cc(NC(=O)C(CCCCN)NC(=O)c4cc(NC(=O)C(CCCCN)NC(=N)N)ccc4OC)ccc3OC)ccc2OC)cc1C(N)=O (stereo not shown) [Compound 29] | 8.33 µg/mL | 0.78 µg/mL | 
9 | COc1ccc(NC(=O)[C@@H](CCCCN)NC(=O)c2cc(NC(=O)[C@@H](CCCNC(=N)N)NC(=O)c3cc(NC(=O)[C@@H](CCCCN)NC(=O)c4cc(NC(=O)[C@H](N)CCCCN)ccc4OC)ccc3OC)ccc2OC)cc1C(N)=O [Compound 32] | inactive | 30.00 µg/mL | 
10 | COc1ccc(NC(=O)[C@@H](CCCNC(N)=O)NC(=O)c2cc(NC(=O)[C@@H](CCCNC(N)=O)NC(=O)c3cc(NC(=O)[C@@H](CCCNC(N)=O)NC(=O)c4cc(NC(=O)[C@H](N)CCCNC(N)=O)ccc4OC)ccc3OC)ccc2OC)cc1C(N)=O [Compound 33] | inactive | 4.30 µg/mL | 
11 | COc1ccc(NC(=O)[C@@H](CCCCN)NC(=O)c2c(OC)ccc(NC(=O)[C@@H](CCCCN)NC(=O)c3c(OC)ccc(NC(=O)[C@@H](CCCCN)NC(=O)c4c(OC)ccc(NC(=O)[C@H](N)CCCCN)c4OC)c3OC)c2OC)c(OC)c1C(N)=O [Compound 36] | inactive | 45.00 µg/mL | 
12 | COc1ccc(NC(=O)[C@@H](CCCCN)NC(=O)c2cc(NC(=O)[C@H](CCCCN)NC(=O)c3cc(NC(=O)[C@@H](CCCCN)NC(=O)c4cc(NC(=O)[C@@H](N)CCCCN)ccc4OC)ccc3OC)ccc2OC)cc1C(N)=O [Compound 37] | inactive | 45.00 µg/mL | 
13 | COc1ccc(NC(=O)[C@@H](CCCNC(=N)N)NC(=O)c2cc(NC(=O)[C@@H](CCCNC(=N)N)NC(=O)c3cc(NC(=O)[C@@H](CCCNC(=N)N)NC(=O)c4cc(NC(=O)[C@H](N)CCCNC(=N)N)ccc4OC)ccc3OC)ccc2OC)cc1C(=O)NCCN [Compound 51] | 4.26 µg/mL | 0.15 µg/mL | 
14 | COc1ccc(NC(=O)[C@@H](CCCNC(=N)N)NC(=O)c2cc(NC(=O)[C@@H](CCCNC(=N)N)NC(=O)c3cc(NC(=O)[C@@H](CCCNC(=N)N)NC(=O)c4cc(NC(=O)[C@@H](C)N)ccc4OC)ccc3OC)ccc2OC)cc1C(=O)NCCN [Compound 54] | 5.92 µg/mL | 0.22 µg/mL | 
15 | COc1ccc(NC(=O)[C@@H](CCCNC(=N)N)NC(=O)c2cc(NC(=O)[C@@H](CCCNC(=N)N)NC(=O)c3cc(NC(=O)[C@@H](CCCNC(=N)N)NC(=O)c4cc(NC(=O)[C@@H](C)N)ccc4OC)ccc3OC)ccc2OC)cc1C(=O)NCCCCCN [Compound 55] | 4.16 µg/mL | 0.18 µg/mL | 
16 | COc1ccc(NC(=O)[C@@H](CCCNC(=N)N)NC(=O)c2cc(NC(=O)[C@@H](CCCNC(=N)N)NC(=O)c3cc(NC(=O)[C@@H](CCCNC(=N)N)NC(=O)c4cc(NC(=O)[C@@H](C)NC(C)=O)ccc4OC)ccc3OC)ccc2OC)cc1C(=O)NCCN [Compound 56] | 5.24 µg/mL | 0.43 µg/mL | 
17 | COc1ccc(NC(=O)[C@@H](CCCNC(=N)N)NC(=O)c2cc(NC(=O)[C@@H](CCCNC(=N)N)NC(=O)c3cc(NC(=O)[C@@H](CCCNC(=N)N)NC(=O)c4cc(NC(=O)[C@@H](C)NC(=O)CCCCNC(=N)N)ccc4OC)ccc3OC)ccc2OC)cc1C(=O)NCCN [Compound 57] | 3.25 µg/mL | 0.17 µg/mL | 
18 | COc1ccc(NC(=O)[C@@H](CCCNC(=N)N)NC(=O)c2cc(NC(=O)[C@@H](CCCNC(=N)N)NC(=O)c3cc(NC(=O)[C@@H](CCCNC(=N)N)NC(=O)c4cc(NC(=O)[C@@H](C)NC(=O)CCCCN)ccc4OC)ccc3OC)ccc2OC)cc1C(=O)NCCN [Compound 58] | 3.94 µg/mL | 0.36 µg/mL | 
19 | COc1ccc(NC(=O)[C@@H](CCCNC(=N)N)NC(=O)c2cc(NC(=O)[C@@H](CCCNC(=N)N)NC(=O)c3cc(NC(=O)[C@@H](CCCNC(=N)N)NC(=O)c4cc(NC(=O)[C@@H](C)NC(=O)CCN)ccc4OC)ccc3OC)ccc2OC)cc1C(=O)NCCN [Compound 59] | 4.53 µg/mL | 0.13 µg/mL | 
20 | COc1ccc(NC(=O)[C@@H](CCCNC(=N)N)NC(=O)c2cc(NC(=O)[C@@H](CCCNC(=N)N)NC(=O)c3cc(NC(=O)[C@@H](CCCNC(=N)N)NC(=O)c4cc(NC(=O)[C@@H](C)NC(C)=O)ccc4OC)ccc3OC)ccc2OC)cc1C(=O)NCCCCCN [Compound 60] | 2.66 µg/mL | 0.21 µg/mL | 
21 | COc1ccc(NC(=O)[C@@H](CCCNC(=N)N)NC(=O)c2cc(NC(=O)[C@@H](CCCNC(=N)N)NC(=O)c3cc(NC(=O)[C@@H](CCCNC(=N)N)NC(=O)c4cc(NC(=O)[C@@H](C)NC(=O)CCCCNC(=N)N)ccc4OC)ccc3OC)ccc2OC)cc1C(=O)NCCCCCN [Compound 61] | 2.99 µg/mL | 0.11 µg/mL | 
22 | COc1ccc(NC(=O)[C@@H](CCCNC(=N)N)NC(=O)c2cc(NC(=O)[C@@H](CCCNC(=N)N)NC(=O)c3cc(NC(=O)[C@@H](CCCNC(=N)N)NC(=O)c4cc(NC(=O)[C@@H](C)NC(=O)CCCCN)ccc4OC)ccc3OC)ccc2OC)cc1C(=O)NCCCCCN [Compound 62] | 3.99 µg/mL | 0.10 µg/mL | 
23 | COc1ccc(NC(=O)[C@@H](CCCNC(=N)N)NC(=O)c2cc(NC(=O)[C@@H](CCCNC(=N)N)NC(=O)c3cc(NC(=O)[C@@H](CCCNC(=N)N)NC(=O)c4cc(NC(=O)[C@@H](C)NC(=O)CCN)ccc4OC)ccc3OC)ccc2OC)cc1C(=O)NCCCCCN [Compound 63] | 3.29 µg/mL | 0.10 µg/mL | 
24 | COc1ccc(NC(=O)[C@@H](CCCNC(=N)N)NC(=O)c2cc(NC(=O)[C@@H](CCCNC(=N)N)NC(=O)c3cc(NC(=O)[C@@H](CCCNC(=N)N)NC(=O)c4cc(NC(=O)[C@@H](CCCNC(=N)N)NC(=O)CCCCCCCCC(=O)N[C@H](CCCNC(=N)N)C(=O)Nc5ccc(OC)c(C(=O)N[C@H](CCCNC(=N)N)C(=O)Nc6ccc(OC)c(C(=O)N[C@H](CCCNC(=N)N)C(=O)Nc7ccc(OC)c(C(=O)N[C@H](CCCNC(=N)N)C(=O)Nc8ccc(OC)c(C(N)=O)c8)c7)c6)c5)ccc4OC)ccc3OC)ccc2OC)cc1C(N)=O [Compound 66] |  |  | 2.53 µg/mL
25 | COc1ccc(NC(=O)[C@@H](CCCNC(=N)N)NC(=O)c2cc(NC(=O)[C@@H](CCCNC(=N)N)NC(=O)c3cc(NC(=O)[C@@H](CCCNC(=N)N)NC(=O)c4cc(NC(=O)[C@H](N)CCCNC(N)=O)ccc4OC)ccc3OC)ccc2OC)cc1C(N)=O [Compound 82] | 0.77 µg/mL | 0.07 µg/mL | 
26 | COc1ccc(NC(=O)[C@@H](CCCNC(=N)N)NC(=O)c2cc(NC(=O)[C@@H](CCCNC(=N)N)NC(=O)c3cc(NC(=O)[C@@H](Cc4c[nH]c5ccccc45)NC(=O)c4cc(NC(=O)[C@H](N)CCCNC(=N)N)ccc4OC)ccc3OC)ccc2OC)cc1C(N)=O [Compound 85] | 1.93 µg/mL | 0.36 µg/mL | 
27 | COc1ccc(NC(=O)[C@H](CCCCN)NC(=O)c2cc(NC(=O)[C@H](CCCCN)NC(=O)c3cc(OC(=O)[C@@H](N)CCCCN)ccc3OC)ccc2OC)cc1C(=O)N[C@@H](CCCCN)C(=O)Nc1ccc(OCC(=O)O)c(C(N)=O)c1 [Compound 116] |  |  | 3.10 µg/mL
